Targets include RPS6KA3 (Homo sapiens, UniProt P51812); PRKACA (Homo sapiens, UniProt P17612); CDK6 (Homo sapiens, UniProt Q00534); CDK2 (Homo sapiens, UniProt P24941); BMX (Homo sapiens, UniProt P51813); LIMK1 (Homo sapiens, UniProt P53667); MAP3K1 (Homo sapiens, UniProt Q13233); IRAK1 (Homo sapiens, UniProt P51617); NEK6 (Homo sapiens, UniProt Q9HC98).
Assay in all cases: biochemical
What all share (set-up): endogenous in cells; host or cells: K562 cell extract; species or system K562 (extract); replicate k of n = 2 (each experiment ID is one independent experiment; two experiment IDs per compound)
What all share (settings): read-out: KDapp

Another assay has as its target T1, TBK1 (Homo sapiens, UniProt Q9UHD2).
T1 sequence (Q9UHD2 1-729): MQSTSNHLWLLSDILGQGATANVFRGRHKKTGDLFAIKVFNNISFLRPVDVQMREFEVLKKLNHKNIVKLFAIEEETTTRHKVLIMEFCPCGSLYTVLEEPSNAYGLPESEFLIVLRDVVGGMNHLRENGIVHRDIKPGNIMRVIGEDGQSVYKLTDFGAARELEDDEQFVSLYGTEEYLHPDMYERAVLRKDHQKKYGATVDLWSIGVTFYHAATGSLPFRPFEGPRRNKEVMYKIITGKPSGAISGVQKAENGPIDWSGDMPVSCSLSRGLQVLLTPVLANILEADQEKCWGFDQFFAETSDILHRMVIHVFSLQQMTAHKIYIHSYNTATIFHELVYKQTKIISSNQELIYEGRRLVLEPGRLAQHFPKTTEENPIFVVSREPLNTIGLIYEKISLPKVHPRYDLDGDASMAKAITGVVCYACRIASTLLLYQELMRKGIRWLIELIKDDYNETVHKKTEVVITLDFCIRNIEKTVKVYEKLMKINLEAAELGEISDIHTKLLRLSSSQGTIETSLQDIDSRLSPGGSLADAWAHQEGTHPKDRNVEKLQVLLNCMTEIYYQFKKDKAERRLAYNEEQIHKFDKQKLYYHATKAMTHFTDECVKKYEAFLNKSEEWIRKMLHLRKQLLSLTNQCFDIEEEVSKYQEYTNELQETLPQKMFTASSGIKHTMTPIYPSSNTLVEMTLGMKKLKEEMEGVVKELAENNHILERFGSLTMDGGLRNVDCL

A further assay addresses T2, TP53RK (Homo sapiens, UniProt Q96S44).
T2 sequence (Q96S44 1-253): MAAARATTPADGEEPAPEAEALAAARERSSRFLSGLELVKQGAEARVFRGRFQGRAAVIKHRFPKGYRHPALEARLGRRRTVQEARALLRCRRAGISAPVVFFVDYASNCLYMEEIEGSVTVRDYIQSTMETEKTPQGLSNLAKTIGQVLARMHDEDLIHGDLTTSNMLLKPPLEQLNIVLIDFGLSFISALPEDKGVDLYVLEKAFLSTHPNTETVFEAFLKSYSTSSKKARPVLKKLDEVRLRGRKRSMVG

“And” between values parts separate entries of the source, which are not always exact repeats. Equal entries are not always repeated.

Sequence of IRAK1 (P51617 whole entry): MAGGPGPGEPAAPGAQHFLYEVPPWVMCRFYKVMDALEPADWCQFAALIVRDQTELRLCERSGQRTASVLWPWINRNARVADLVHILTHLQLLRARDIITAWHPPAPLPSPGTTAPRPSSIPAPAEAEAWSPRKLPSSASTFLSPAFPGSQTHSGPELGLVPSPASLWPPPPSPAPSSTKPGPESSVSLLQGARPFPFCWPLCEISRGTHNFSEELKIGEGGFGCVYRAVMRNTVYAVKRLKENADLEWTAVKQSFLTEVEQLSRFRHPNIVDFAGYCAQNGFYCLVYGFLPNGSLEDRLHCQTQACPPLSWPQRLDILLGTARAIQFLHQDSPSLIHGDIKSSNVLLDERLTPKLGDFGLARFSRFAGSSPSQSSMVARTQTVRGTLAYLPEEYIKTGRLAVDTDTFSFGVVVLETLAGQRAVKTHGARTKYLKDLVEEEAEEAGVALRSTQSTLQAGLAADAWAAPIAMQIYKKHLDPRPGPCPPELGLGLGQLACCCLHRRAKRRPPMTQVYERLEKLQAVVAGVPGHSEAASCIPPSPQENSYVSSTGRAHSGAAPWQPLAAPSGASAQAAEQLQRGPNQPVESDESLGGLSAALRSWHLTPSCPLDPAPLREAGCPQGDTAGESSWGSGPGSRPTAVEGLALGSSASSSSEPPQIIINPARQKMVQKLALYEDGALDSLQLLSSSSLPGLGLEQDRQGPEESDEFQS
Sequence of RPS6KA3 (P51812 whole entry): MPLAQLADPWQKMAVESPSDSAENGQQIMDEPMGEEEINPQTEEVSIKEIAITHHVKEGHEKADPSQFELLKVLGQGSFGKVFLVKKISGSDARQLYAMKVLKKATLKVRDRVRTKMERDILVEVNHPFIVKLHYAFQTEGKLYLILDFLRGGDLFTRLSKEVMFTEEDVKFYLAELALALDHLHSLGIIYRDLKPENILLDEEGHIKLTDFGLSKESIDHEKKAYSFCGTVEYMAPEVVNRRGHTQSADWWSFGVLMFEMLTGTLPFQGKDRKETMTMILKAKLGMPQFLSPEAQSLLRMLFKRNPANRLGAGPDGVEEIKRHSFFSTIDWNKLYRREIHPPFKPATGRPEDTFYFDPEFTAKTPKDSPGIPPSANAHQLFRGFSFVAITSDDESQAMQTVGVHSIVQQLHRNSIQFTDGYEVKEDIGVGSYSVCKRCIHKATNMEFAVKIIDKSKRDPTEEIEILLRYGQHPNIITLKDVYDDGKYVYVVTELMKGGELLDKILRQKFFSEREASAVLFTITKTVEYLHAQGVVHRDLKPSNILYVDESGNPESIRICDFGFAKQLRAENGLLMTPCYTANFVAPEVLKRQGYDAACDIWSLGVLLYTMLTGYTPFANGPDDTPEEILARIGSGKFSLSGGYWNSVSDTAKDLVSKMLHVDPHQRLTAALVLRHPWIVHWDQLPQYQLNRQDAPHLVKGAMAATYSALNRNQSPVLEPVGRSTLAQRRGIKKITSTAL
Sequence of CDK6 (Q00534 whole entry): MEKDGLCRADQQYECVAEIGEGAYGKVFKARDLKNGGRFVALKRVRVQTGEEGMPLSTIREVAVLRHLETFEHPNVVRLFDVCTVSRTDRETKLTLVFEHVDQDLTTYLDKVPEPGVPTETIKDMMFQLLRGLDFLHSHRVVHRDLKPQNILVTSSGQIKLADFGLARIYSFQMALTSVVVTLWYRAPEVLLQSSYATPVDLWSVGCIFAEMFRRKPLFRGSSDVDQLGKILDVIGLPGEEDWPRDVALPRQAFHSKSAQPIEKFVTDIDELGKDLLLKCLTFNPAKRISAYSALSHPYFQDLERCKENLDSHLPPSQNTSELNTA
Sequence of NEK6 (Q9HC98 whole entry): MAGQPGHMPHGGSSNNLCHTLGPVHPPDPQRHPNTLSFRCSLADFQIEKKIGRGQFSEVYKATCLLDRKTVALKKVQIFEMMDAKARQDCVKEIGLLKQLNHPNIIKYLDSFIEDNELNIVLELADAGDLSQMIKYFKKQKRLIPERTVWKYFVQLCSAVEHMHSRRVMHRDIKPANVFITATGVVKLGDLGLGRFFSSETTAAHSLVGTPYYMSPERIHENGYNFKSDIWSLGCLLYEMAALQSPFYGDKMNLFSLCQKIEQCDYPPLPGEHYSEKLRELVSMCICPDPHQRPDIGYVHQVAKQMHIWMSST
Sequence of LIMK1 (P53667 whole entry): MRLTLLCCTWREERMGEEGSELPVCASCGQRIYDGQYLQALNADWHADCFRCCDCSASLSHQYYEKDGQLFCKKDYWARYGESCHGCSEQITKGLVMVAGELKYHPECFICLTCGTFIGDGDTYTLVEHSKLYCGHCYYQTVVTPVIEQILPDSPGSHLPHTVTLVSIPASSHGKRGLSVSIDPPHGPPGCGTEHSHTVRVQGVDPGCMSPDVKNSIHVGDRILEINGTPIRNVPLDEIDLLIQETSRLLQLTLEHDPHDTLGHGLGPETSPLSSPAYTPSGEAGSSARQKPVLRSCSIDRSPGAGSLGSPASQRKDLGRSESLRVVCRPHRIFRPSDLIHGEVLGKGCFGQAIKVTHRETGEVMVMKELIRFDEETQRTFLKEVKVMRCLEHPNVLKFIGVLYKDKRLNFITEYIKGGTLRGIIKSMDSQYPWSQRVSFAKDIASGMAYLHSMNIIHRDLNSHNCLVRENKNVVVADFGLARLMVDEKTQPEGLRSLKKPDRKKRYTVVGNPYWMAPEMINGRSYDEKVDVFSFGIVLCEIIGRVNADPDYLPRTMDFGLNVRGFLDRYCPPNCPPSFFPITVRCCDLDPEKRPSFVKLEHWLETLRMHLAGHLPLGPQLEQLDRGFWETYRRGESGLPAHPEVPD
Sequence of MAP3K1 (Q13233 whole entry): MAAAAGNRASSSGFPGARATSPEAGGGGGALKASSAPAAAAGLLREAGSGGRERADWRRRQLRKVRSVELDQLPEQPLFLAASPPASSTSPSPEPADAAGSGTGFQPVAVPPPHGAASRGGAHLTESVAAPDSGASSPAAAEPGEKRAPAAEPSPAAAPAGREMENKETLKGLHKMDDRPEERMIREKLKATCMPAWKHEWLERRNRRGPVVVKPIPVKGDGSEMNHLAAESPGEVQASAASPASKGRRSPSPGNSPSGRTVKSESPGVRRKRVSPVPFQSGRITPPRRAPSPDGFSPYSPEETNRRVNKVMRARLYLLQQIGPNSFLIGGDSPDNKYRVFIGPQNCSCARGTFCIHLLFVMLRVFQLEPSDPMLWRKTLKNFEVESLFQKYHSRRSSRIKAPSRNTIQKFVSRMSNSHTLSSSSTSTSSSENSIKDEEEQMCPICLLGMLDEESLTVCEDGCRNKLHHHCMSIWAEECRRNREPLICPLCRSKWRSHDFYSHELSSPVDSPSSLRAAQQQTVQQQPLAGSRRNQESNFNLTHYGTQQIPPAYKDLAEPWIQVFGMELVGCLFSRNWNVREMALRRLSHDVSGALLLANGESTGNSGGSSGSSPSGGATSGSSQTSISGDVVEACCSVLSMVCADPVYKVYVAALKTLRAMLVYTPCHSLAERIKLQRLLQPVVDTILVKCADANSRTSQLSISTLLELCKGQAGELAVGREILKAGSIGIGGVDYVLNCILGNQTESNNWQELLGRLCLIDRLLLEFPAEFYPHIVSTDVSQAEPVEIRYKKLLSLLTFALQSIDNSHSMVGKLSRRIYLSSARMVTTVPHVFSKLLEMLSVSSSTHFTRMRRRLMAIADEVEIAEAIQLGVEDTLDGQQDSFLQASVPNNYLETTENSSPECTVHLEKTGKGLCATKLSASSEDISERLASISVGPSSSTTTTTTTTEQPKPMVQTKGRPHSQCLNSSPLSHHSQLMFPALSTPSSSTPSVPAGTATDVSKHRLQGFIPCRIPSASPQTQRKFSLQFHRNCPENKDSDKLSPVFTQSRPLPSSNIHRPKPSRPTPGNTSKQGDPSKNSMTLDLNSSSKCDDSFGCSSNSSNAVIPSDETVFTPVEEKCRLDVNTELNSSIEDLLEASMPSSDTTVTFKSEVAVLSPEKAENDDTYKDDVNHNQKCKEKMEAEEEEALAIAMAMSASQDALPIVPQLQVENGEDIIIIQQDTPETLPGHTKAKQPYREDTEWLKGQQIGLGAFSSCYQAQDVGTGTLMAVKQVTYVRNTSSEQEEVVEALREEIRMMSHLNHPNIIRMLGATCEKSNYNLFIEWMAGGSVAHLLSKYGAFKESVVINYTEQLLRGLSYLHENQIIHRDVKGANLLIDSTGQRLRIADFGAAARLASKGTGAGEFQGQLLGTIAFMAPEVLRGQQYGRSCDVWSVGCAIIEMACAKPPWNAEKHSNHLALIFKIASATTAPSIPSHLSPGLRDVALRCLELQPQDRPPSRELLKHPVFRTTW
Sequence of BMX (P51813 whole entry): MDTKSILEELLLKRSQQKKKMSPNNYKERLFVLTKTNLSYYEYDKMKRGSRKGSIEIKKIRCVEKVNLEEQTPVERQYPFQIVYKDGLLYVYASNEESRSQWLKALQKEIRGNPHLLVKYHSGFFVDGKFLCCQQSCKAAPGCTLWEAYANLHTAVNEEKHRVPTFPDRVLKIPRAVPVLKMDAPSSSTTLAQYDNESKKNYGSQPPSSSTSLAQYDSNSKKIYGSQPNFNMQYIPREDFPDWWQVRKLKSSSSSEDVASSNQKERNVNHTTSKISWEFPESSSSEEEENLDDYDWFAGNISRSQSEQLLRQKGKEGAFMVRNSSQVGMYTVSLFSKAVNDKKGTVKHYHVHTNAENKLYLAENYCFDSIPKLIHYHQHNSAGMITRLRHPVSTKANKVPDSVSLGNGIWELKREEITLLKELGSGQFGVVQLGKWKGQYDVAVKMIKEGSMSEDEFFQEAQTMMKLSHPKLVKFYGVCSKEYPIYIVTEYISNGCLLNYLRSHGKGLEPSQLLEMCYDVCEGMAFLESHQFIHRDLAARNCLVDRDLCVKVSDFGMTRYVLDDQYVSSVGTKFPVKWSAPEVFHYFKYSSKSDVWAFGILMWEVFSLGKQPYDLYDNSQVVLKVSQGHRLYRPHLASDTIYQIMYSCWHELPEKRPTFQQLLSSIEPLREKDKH

On to `CN1CCN(c2ccc(Nc3ncc(C#N)c(Nc4ccccc4C(N)=O)n3)cc2)CC1.Cl` [TCMDC-134116], for which the Kd on TBK1 was 229 nM and 220 nM; at RPS6KA3, 60.8 nM and 82 nM; on PRKACA it was 1330 nM; on TP53RK, 3770 nM; on CDK6, 133 nM and 150 nM; on CDK2, 135 nM and 131 nM. For the same compound, the Kd on BMX is 285 nM; on LIMK1 it was 121 nM; on MAP3K1 it was 681 nM; on IRAK1, 92.9 nM and 81.3 nM; on NEK6, 160 nM.

The values are drawn from article PMC4774911, “Biochemical Screening of Five Protein Kinases from Plasmodium falciparum against 14,000 Cell-Active Compounds” (PLoS ONE, 2016).
